Like-named read-outs stand apart in the source and are kept apart here.
Assays:
ZIKV strain PAN2016 [1] = assay: Plaque reduction inhibition assay, ZIKV PAN2016 in Vero E6 cells; assay type: cell-based; details: Zika virus
Vero E6 cells [2] = assay: Initial screening: cytotoxicity observed under a microscope; details: initial screening at 20 µM
ZIKV (PAN2016) = assay: Time-of-addition experiment, ZIKV PAN2016 in Vero E6 cells; assay type: cell-based, Zika virus (ZIKV); details: for inhibition of ZIKV infection, step a: pretreatment of ZIKV: natural product with ZIKV 37 °C 1 h before cells; for inhibition at 7.5 µM: Zika virus, Vero C1008, 1 h
DENV-1-V1792 = assay: Plaque reduction inhibition assay, DENV-1 in LLC-MK2 cells; assay type: cell-based; details: Dengue virus, DENV1
DENV-2-V594 = assay: Plaque reduction inhibition assay, DENV-2 in LLC-MK2 cells; assay type: cell-based; details: Dengue virus, DENV2
ZIKV strain PAN2016 [3] = assay type: cell-based, Zika virus (ZIKV); details: for IC50: Zika virus
in vitro [4] = details: African green monkey
ZIKV strain PLCal_ZV = assay: Plaque reduction inhibition assay, ZIKV PLCal_ZV in Vero E6 cells; assay type: cell-based; details: Zika virus
[5] = tested on: ZIKV mosquito strain MEX 2–81; assay: Plaque reduction inhibition assay, ZIKV MEX 2–81 in Vero E6 cells; assay type: cell-based; details: Zika virus
ZIKV strain PRVABC59 [6] = assay: Plaque reduction inhibition assay, ZIKV PRVABC59 in Vero E6 cells; assay type: cell-based; details: Zika virus
ZIKV strain IbH 30656 = assay: Plaque reduction inhibition assay, ZIKV IbH 30656 in Vero E6 cells; assay type: cell-based; details: Zika virus, Vero C1008, read-out: IC50 IbH 30656
ZIKV strain R103451 = assay: Plaque reduction inhibition assay, ZIKV R103451 in Vero E6 cells; assay type: cell-based; details: Zika virus
nine ZIKV strains = assay: Plaque reduction inhibition assay, nine additional ZIKV strains (summary); assay type: cell-based; details: Zika virus, Vero C1008; range over nine additional ZIKV strains, Vero E6 cells; read-out: IC50 values against all nine ZIKV strains tested
[7] = tested on: ZIKV rhesus macaque strain MR 766; assay: Plaque reduction inhibition assay, ZIKV MR 766 in Vero E6 cells; assay type: cell-based; details: Zika virus, Vero C1008, in Macaca mulatta, read-out: IC50 MR 766
ZIKV strain FLR [8] = assay: Plaque reduction inhibition assay, ZIKV FLR in Vero E6 cells; assay type: cell-based; details: Zika virus
ZIKV strain FLR [9] = assay type: cell-based, Zika virus (ZIKV); details: for IC50: Zika virus
in vitro [10] = details: rhesus monkey
DENV-3-V1043 = assay: Plaque reduction inhibition assay, DENV-3 in LLC-MK2 cells; assay type: cell-based; details: Dengue virus, DENV3
DENV-4-PR 06-65-740 = assay: Plaque reduction inhibition assay, DENV-4 in LLC-MK2 cells; assay type: cell-based; details: Dengue virus, DENV4
in vitro [11] = details: African green monkey; remark: listed apart in the source
[12] = biological target: binding between ZIKV EDIII protein and EDIII-specific human mAbs (Zika virus, UniProt A0A024B7W1); details: ELISA; no binding between ZKA78 and EDIII
Sequence of binding between ZIKV EDIII protein and EDIII-specific human mAbs (A0A024B7W1 588-699): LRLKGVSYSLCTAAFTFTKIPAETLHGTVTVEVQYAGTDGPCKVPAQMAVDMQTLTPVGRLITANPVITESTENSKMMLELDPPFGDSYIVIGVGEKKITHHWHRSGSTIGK

[13] = biological target: ZIKV full-length E protein (Zika virus, UniProt A0A024B7W1); assay type: binding; details: ELISA
Sequence of ZIKV full-length E protein (A0A024B7W1 291-794): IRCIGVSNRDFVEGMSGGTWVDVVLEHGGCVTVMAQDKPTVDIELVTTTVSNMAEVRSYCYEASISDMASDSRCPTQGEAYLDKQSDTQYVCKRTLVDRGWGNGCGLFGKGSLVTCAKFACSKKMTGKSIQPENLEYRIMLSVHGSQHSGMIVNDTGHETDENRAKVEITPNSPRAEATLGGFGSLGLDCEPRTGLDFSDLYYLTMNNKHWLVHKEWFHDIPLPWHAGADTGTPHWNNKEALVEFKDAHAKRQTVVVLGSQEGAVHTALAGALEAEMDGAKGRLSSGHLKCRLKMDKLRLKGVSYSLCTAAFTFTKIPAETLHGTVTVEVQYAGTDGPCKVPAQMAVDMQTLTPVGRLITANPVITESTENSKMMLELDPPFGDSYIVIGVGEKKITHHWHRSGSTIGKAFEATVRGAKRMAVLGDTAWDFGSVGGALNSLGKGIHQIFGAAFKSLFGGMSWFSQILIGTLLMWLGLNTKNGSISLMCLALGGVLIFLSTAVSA

ZIKV strain R116265 = assay: Plaque reduction inhibition assay, ZIKV R116265 in Vero E6 cells; assay type: cell-based; details: Zika virus, Vero C1008
ZIKV strain PAN2015 = assay: Plaque reduction inhibition assay, ZIKV PAN2015 in Vero E6 cells; assay type: cell-based; details: Zika virus, Vero C1008
[14] = Combinatorial cytotoxicity of gossypol with other natural products, CCK8; details: African green monkey
Vero E6 cells [15] = assay: as above; details: Vero E6; for Fold of Enhancement of cytotoxicity (natural product with gossypol): (CC50 alone)/(CC50 in the mixture)—1
[16] = biological target: T1, ZIKV envelope protein domain III (EDIII) protein (Zika virus, UniProt A0A024B7W1); assay type: binding; details: ELISA
T1 construct: E residues 298–409 fused with a C-terminal human Fc; made in house
T1 sequence (A0A024B7W1 588-699): as the sequence (A0A024B7W1 588-699) above

ZIKV strain PRVABC59 [17] = assay type: cell-based, Zika virus (ZIKV)
[18] = gossypol 15 µM, curcumin 30 µM, digitonin 7.5 µM, conessine 30 µM
[19] = Vero C1008, read-out: IC50 Alone

For `Cc1cc2c(C(C)C)c(O)c(O)c(C=O)c2c(O)c1-c1c(C)cc2c(C(C)C)c(O)c(O)c(C=O)c2c1O` [Gossypol, gossypol], the IC50 (ZIKV strain PAN2016 [1]; Vero C1008, read-out: IC50 PAN2016) was 3.48 ± 0.03 µM, the IC90 (ZIKV strain PAN2016 [1]; Vero C1008, read-out: IC90 against ZIKV PAN2016 strain) was ~6.91 µM and the “cytotoxicity in Vero E6 cells observed under a microscope” value (Vero E6 cells [2]) was “no obvious cytotoxicity”. For the same molecule, the “inhibition of ZIKV infection, step e: penetration (membrane fusion)” value (ZIKV (PAN2016); cells with ZIKV 4 °C 1 h, then natural product 37 °C 1 h, gossypol 15 µM, curcumin 30 µM, digitonin 7.5 µM, conessine 30 µM) was “maintained its infectivity”, the “inhibition of ZIKV infection, step f: postentry stage” value (ZIKV (PAN2016); cells with ZIKV 37 °C 1 h, then natural product 37 °C 1 h, gossypol 15 µM, curcumin 30 µM, digitonin 7.5 µM, conessine 30 µM) was “maintained its infectivity” and the “inhibition of ZIKV infection, step b: pretreatment of cells” value (ZIKV (PAN2016); cells with natural product 37 °C 1 h before ZIKV, gossypol 15 µM, curcumin 30 µM, digitonin 7.5 µM, conessine 30 µM) was “maintained its infectivity”. The “inhibition of ZIKV infection, step c: cotreatment at 4 °C (attachment)” value (ZIKV (PAN2016); cells, ZIKV and natural product 4 °C 1 h, gossypol 15 µM, curcumin 30 µM, digitonin 7.5 µM, conessine 30 µM) was “maintained its infectivity”, the “inhibition of ZIKV infection, step d: cotreatment at 37 °C” value (ZIKV (PAN2016); cells, ZIKV and natural product 37 °C 1 h, gossypol 15 µM, curcumin 30 µM, digitonin 7.5 µM, conessine 30 µM) was “maintained its infectivity” and the “inhibition of ZIKV infection, step a: pretreatment of ZIKV” value (ZIKV (PAN2016); [18]) was “completely lost its infectivity”. For the same molecule, the IC50 (DENV-1-V1792) was 1.87 ± 0.01 µM, the IC50 (DENV-2-V594) was 1.89 ± 0.21 µM and the IC50 (ZIKV strain PAN2016 [3]; [19]) was 3.79 ± 0.01 µM. It also gave a CC50 at 3 days (in vitro [4]) of 14.8 ± 0.42 µM, an IC50 (ZIKV strain PLCal_ZV; Vero C1008, read-out: IC50 PLCal_ZV) of 1.98 ± 0.07 µM and an IC50 ([5]; Vero C1008, read-out: IC50 MEX 2–81) of 2.79 ± 0.01 µM. The IC90 (ZIKV strain PRVABC59 [6]; Vero C1008, read-out: IC90 against ZIKV strain PRVABC59) was ~8.81 µM, the IC50 (ZIKV strain IbH 30656) was 3.31 ± 0.11 µM and the IC50 (ZIKV strain R103451; Vero C1008, read-out: IC50 R103451) was 2.28 ± 0.1 µM. For the same molecule, the IC50 (nine ZIKV strains) was 0.21 to 4.31 µM, the IC50 [7] was 3.75 ± 0.01 µM and the IC50 (ZIKV strain FLR [8]; Vero C1008, read-out: IC50 FLR) was 0.21 ± 0.01 µM. For the same molecule, the IC50 (ZIKV strain FLR [9]; [19]) was 0.26 ± 0.01 µM, the CC50 at 3 days (in vitro [10]) was 14.5 ± 0.59 µM and the IC50 (DENV-3-V1043) was 3.7 ± 0.59 µM. For the same molecule, the IC50 (DENV-4-PR 06-65-740) was 2.6 ± 0.12 µM, the CC50 at 3 days (in vitro [11]) was 14.2 ± 0.74 µM and the “inhibition with control mAb ZKA78 (EDI/DII-specific)” value [12] was “no obvious inhibition”.
In the case of `C[C@@H]1CC[C@@]2(OC1)O[C@H]1[C@@H](O)[C@H]3[C@@H]4CC[C@H]5C[C@@H](O[C@@H]6O[C@H](CO)[C@H](O[C@@H]7O[C@H](CO)[C@@H](O)[C@H](O[C@@H]8OC[C@@H](O)[C@H](O)[C@H]8O)[C@H]7O[C@@H]7O[C@H](CO)[C@H](O)[C@H](O[C@@H]8O[C@H](CO)[C@@H](O)[C@H](O)[C@H]8O)[C@H]7O)[C@H](O)[C@H]6O)[C@H](O)C[C@]5(C)[C@H]4CC[C@]3(C)[C@H]1[C@@H]2C` [Digitonin, digitonin], the IC90 (ZIKV strain PAN2016 [1]; Vero C1008, 90% plaque reduction, Vero E6 cells, read-out: IC90 against ZIKV PAN2016 strain) is reported as ~7.91 µM, the IC50 (ZIKV strain PAN2016 [1]; Vero C1008, plaque reduction, Vero E6 cells, read-out: IC50 PAN2016) is reported as 4.31 ± 0.23 µM and the “cytotoxicity in Vero E6 cells observed under a microscope” value (Vero E6 cells [2]) is reported as “no obvious cytotoxicity”. For the same molecule, the “binding to ZIKV full-length E protein (in words)” value [13] was “did not bind”, the inhibition at 7.5 µM (ZIKV (PAN2016); read-out: inhibition of ZIKV infection, step c: cotreatment at 4 °C (attachment)) was 49 to 74% and the inhibition at 7.5 µM (ZIKV (PAN2016); read-out: inhibition of ZIKV infection, step d: cotreatment at 37 °C) was ≥ 94%. The inhibition at 7.5 µM (ZIKV (PAN2016); read-out: inhibition of ZIKV infection, step e: penetration (membrane fusion)) was 49 to 74%, the inhibition at 7.5 µM (ZIKV (PAN2016); read-out: inhibition of ZIKV infection, step f: postentry stage) was 49 to 74% and the “inhibition of ZIKV infection, step a: pretreatment of ZIKV” value (ZIKV (PAN2016); [18]) was “no effect”. The IC50 (DENV-1-V1792) was 5.21 ± 0.35 µM, the IC50 (DENV-2-V594) was 6.56 ± 0.21 µM and the “Fold of Enhancement (natural product with gossypol)” value (ZIKV strain PAN2016 [3]; ZIKV PAN2016, (IC50 alone)/(IC50 in the mixture)—1) was 2.21. For the same molecule, the “CI (combination index) of gossypol with the named natural product” value (from here on “CI (combination index) of gossypol”) (ZIKV strain PAN2016 [3]; ZIKV PAN2016, CI < 1 synergy) was 0.60, the IC50 (ZIKV strain PAN2016 [3]; Vero C1008, ZIKV PAN2016, Vero E6, natural product without combination, read-out: IC50 Alone) was 4.85 ± 0.24 µM and the IC50 (ZIKV strain PLCal_ZV; Vero C1008, plaque reduction, Vero E6 cells, read-out: IC50 PLCal_ZV) was 3.19 ± 0.25 µM. For the same molecule, the IC50 ([5]; Vero C1008, plaque reduction, Vero E6 cells, read-out: IC50 MEX 2–81) was 3.84 ± 0.12 µM, the IC50 (ZIKV strain PRVABC59 [6]; Vero C1008, plaque reduction, Vero E6 cells) was 3.76 ± 1.12 µM and the IC50 (ZIKV strain R103451; Vero C1008, plaque reduction, Vero E6 cells, read-out: IC50 R103451) was 4.3 ± 0.43 µM. It also gave an IC50 (ZIKV strain R116265) of 6.52 ± 0.59 µM, an IC50 ([7]; plaque reduction, Vero E6 cells) of 3.77 ± 0.31 µM and an IC50 (ZIKV strain FLR [8]; Vero C1008, plaque reduction, Vero E6 cells, read-out: IC50 FLR) of 3.34 ± 0.22 µM. The IC50 (ZIKV strain PAN2015) was 5 ± 0.01 µM, the CC50 at 3 days [14] was 50.63 ± 0.22 µM and the “Fold of Enhancement of cytotoxicity (natural product with gossypol)” value (Vero E6 cells [15]) was 2.60. For the same molecule, the “Fold of Enhancement of cytotoxicity (natural product with gossypol)” value (Vero E6 cells [15]; listed as digitonin) was “about 2.60”, the “CI (combination index, cytotoxicity) of gossypol with the named natural product” value (Vero E6 cells [15]; based on CC50) was 1.36 and the “binding to ZIKV EDIII protein (in words)” value [16] was “did not bind”. The “Fold of Enhancement (natural product with gossypol)” value (ZIKV strain PRVABC59 [17]; ZIKV PRVABC59, (IC50 alone)/(IC50 in the mixture)—1) was 5.98, the “CI (combination index) of gossypol” value (ZIKV strain PRVABC59 [17]; ZIKV PRVABC59, CI < 1 synergy) was 0.29 and the IC50 (ZIKV strain PRVABC59 [17]; Zika virus, Vero C1008, ZIKV PRVABC59, Vero E6, natural product without combination, read-out: IC50 Alone) was 3.84 ± 0.81 µM. The “CI (combination index) of gossypol” value (ZIKV strain FLR [9]; ZIKV FLR, CI < 1 synergy) was 0.95, the IC50 (ZIKV strain FLR [9]; Vero C1008, ZIKV FLR, Vero E6, natural product without combination, read-out: IC50 Alone) was 3.86 ± 0.02 µM and the CC50 at 3 days (in vitro [10]) was 59.02 ± 0.33 µM. It also gave an IC50 (DENV-3-V1043) of 4.07 ± 0.83 µM, an IC50 (DENV-4-PR 06-65-740) of 6.44 ± 0.34 µM and a CC50 at 3 days (in vitro [11]) of 56.3 ± 1.2 µM.
